Reference: PubChem BioAssay AID270 (DTP/NCI, 2004)
Values joined by “and” are separate entries in the source; they are usually repeats but may differ in a detail not shown here. Equal values may be shown once. Inconclusive results are not listed.

Test system: BDF1 mice, s.c. Lewis lung carcinoma, T/C %
Assay: NCI In Vivo Anticancer Drug Screen. Data for tumor model Lewis Lung Carcinoma (subcutaneous) in B6D2F1 (BDF1) mice
How it was run: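 Tumor-bearing mice were treated with test compound, and either survival or tumor size was recorded. Values are the treated-group measurement divided by that of the vehicle-treated control group.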

CCCCOP(=O)(OCCCC)c1ccccc1
T/C (endpoint: mean tumor weight, dose: 104.0 mg/kg/injection, schedule: Q01DX011 (ip), vehicle: other, higher = larger tumour): 93 % of control
T/C (endpoint: mean tumor weight, dose: 233.0 mg/kg/injection, schedule: Q01DX011 (ip), vehicle: other, higher = larger tumour): 66 % of control

COc1ccc(CN2CCCN(Cc3ccc(OC)cc3)C2c2ccccc2)cc1
T/C (endpoint: mean tumor weight, dose: 111.0 mg/kg/injection, schedule: Q01DX011 (ip), vehicle: other, higher = larger tumour): 120 % of control
T/C (endpoint: mean tumor weight, dose: 250.0 mg/kg/injection, schedule: Q01DX011 (ip), vehicle: other, higher = larger tumour): 83 % of control

NC(C/[N+]([O-])=N/O)C(=O)O (centres undefined)
T/C (endpoint: median survival time, dose: 8.78 mg/kg/injection, schedule: Q01DX010 (ip), vehicle: alkali diluted with saline, higher = longer survival): 103 % of control and 105 % of control
T/C (endpoint: median survival time, dose: 13.2 mg/kg/injection, schedule: Q01DX010 (ip), vehicle: alkali diluted with saline, higher = longer survival): 120 % of control and 121 % of control
T/C (endpoint: median survival time, dose: 19.8 mg/kg/injection, schedule: Q01DX010 (ip), vehicle: alkali diluted with saline, higher = longer survival): 102 % of control
T/C (endpoint: median survival time, dose: 29.6 mg/kg/injection, schedule: Q01DX010 (ip), vehicle: alkali diluted with saline, higher = longer survival): 105 % of control
T/C (endpoint: median survival time, dose: 44.4 mg/kg/injection, schedule: Q01DX010 (ip), vehicle: alkali diluted with saline, higher = longer survival): 114 % of control and 116 % of control
T/C (endpoint: median survival time, dose: 66.7 mg/kg/injection, schedule: Q01DX010 (ip), vehicle: alkali diluted with saline, higher = longer survival): 117 % of control
T/C (endpoint: median survival time, dose: 100.0 mg/kg/injection, schedule: Q01DX010 (ip), vehicle: alkali diluted with saline, higher = longer survival): 98 % of control
T/C (endpoint: median survival time, dose: 1000.0 mg/kg/injection, schedule: Q01DX001 (ip), vehicle: saline, higher = longer survival): 96 % of control

C=C(CC(=O)O)C(=O)O (tested in a mixture with another compound)
T/C (endpoint: median survival time, dose: 3.12 mg/kg/injection, schedule: Q01DX009 (ip), vehicle: other, higher = longer survival): 94 % of control
T/C (endpoint: median survival time, dose: 6.25 mg/kg/injection, schedule: Q01DX009 (ip), vehicle: other, higher = longer survival): 101 % of control
T/C (endpoint: median survival time, dose: 12.5 mg/kg/injection, schedule: Q01DX009 (ip), vehicle: other, higher = longer survival): 103 % of control
T/C (endpoint: median survival time, dose: 25.0 mg/kg/injection, schedule: Q01DX009 (ip), vehicle: other, higher = longer survival): 88 % of control

CC/C(=C(\CC)c1ccc(OC)cc1)c1ccc(O)cc1
T/C (endpoint: mean tumor weight, dose: 15.0 mg/kg/injection, schedule: Q01DX011 (sc), vehicle: steriod suspending solution, higher = larger tumour): 54 % of control
T/C (endpoint: mean tumor weight, dose: 30.0 mg/kg/injection, schedule: Q01DX011 (sc), vehicle: steriod suspending solution, higher = larger tumour): 35 % of control
T/C (endpoint: mean tumor weight, dose: 60.0 mg/kg/injection, schedule: Q01DX011 (sc), vehicle: steriod suspending solution, higher = larger tumour): 23 % of control
T/C (endpoint: mean tumor weight, dose: 100.0 mg/kg/injection, schedule: Q01DX011 (sc), vehicle: steriod suspending solution, higher = larger tumour): 7 % of control
T/C (endpoint: mean tumor weight, dose: 120.0 mg/kg/injection, schedule: Q01DX011 (sc), vehicle: steriod suspending solution, higher = larger tumour): 31 % of control and 36 % of control
T/C (endpoint: mean tumor weight, dose: 200.0 mg/kg/injection, schedule: Q01DX011 (sc), vehicle: steriod suspending solution, higher = larger tumour): 22 % of control
T/C (endpoint: mean tumor weight, dose: 240.0 mg/kg/injection, schedule: Q01DX011 (sc), vehicle: steriod suspending solution, higher = larger tumour): 31 % of control
T/C (endpoint: mean tumor weight, dose: 300.0 mg/kg/injection, schedule: Q01DX011 (sc), vehicle: steriod suspending solution, higher = larger tumour): 22 % of control

COC(=O)C1CCC(NC(=O)N(CCCl)N=O)CC1 (centres undefined)
T/C (endpoint: median survival time, dose: 14.0 mg/kg/injection, schedule: Q01DX001 (ip), vehicle: saline with Tween-80, higher = longer survival): 206 % of control
T/C (endpoint: median survival time, dose: 21.0 mg/kg/injection, schedule: Q01DX001 (ip), vehicle: saline with Tween-80, higher = longer survival): 223 % of control
T/C (endpoint: median survival time, dose: 23.0 mg/kg/injection, schedule: Q01DX001 (ip), vehicle: saline with Tween-80, higher = longer survival): 180 % of control
T/C (endpoint: median survival time, dose: 24.0 mg/kg/injection, schedule: Q01DX001 (ip), vehicle: saline with Tween-80, higher = longer survival): 152 % of control
T/C (endpoint: median survival time, dose: 32.0 mg/kg/injection, schedule: Q01DX001 (ip), vehicle: saline with Tween-80, higher = longer survival): 188 % of control
T/C (endpoint: median survival time, dose: 36.0 mg/kg/injection, schedule: Q01DX001 (ip), vehicle: saline with Tween-80, higher = longer survival): 219 % of control
T/C (endpoint: median survival time, dose: 54.0 mg/kg/injection, schedule: Q01DX001 (ip), vehicle: saline with Tween-80, higher = longer survival): 198 % of control
T/C (endpoint: median survival time, dose: 81.0 mg/kg/injection, schedule: Q01DX001 (ip), vehicle: saline with Tween-80, higher = longer survival): 94 % of control

CC(C)(c1ccccc1)c1ccc(O)cc1
T/C (endpoint: mean tumor weight, dose: 45.0 mg/kg/injection, schedule: Q01DX011 (ip), vehicle: carboxymethylcellulose (CMC), higher = larger tumour): 82 % of control
T/C (endpoint: mean tumor weight, dose: 65.0 mg/kg/injection, schedule: Q01DX011 (ip), vehicle: carboxymethylcellulose (CMC), higher = larger tumour): 60 % of control

CC(C)C(=O)[O][Sn]([CH3])([CH3])[CH3]
T/C (endpoint: median survival time, dose: 0.09 mg/kg/injection, schedule: Q01DX009 (ip), vehicle: saline, higher = longer survival): 97 % of control
T/C (endpoint: median survival time, dose: 0.19 mg/kg/injection, schedule: Q01DX009 (ip), vehicle: saline, higher = longer survival): 101 % of control
T/C (endpoint: median survival time, dose: 0.38 mg/kg/injection, schedule: Q01DX009 (ip), vehicle: saline, higher = longer survival): 89 % of control and 105 % of control

COC(=O)C[C@](O)(CCC(C)(C)O)C(=O)O[C@@H]1C(OC)=C[C@]23CCCN2CCc2cc4c(cc2[C@H]13)OCO4
T/C (endpoint: mean tumor weight, dose: 0.25 mg/kg/injection, schedule: Q01DX011 (ip), vehicle: saline, higher = larger tumour): 71 % of control
T/C (endpoint: mean tumor weight, dose: 0.5 mg/kg/injection, schedule: Q01DX011 (ip), vehicle: saline, higher = larger tumour): 85 % of control
T/C (endpoint: mean tumor weight, dose: 2.0 mg/kg/injection, schedule: Q01DX011 (ip), vehicle: saline, higher = larger tumour): 68 % of control

CCCCCCCC(=O)O[C@H]1[C@H]2[C@@H](CC1(C)C)C(=O)[C@]13O[C@H]1C(=O)[C@]1(CO1)[C@]23C
T/C (endpoint: median survival time, dose: 0.31 mg/kg/injection, schedule: Q01DX009 (ip), vehicle: Klucel (hydroxypropylcellulose) (HPC), higher = longer survival): 89 % of control
T/C (endpoint: median survival time, dose: 0.63 mg/kg/injection, schedule: Q01DX009 (ip), vehicle: Klucel (hydroxypropylcellulose) (HPC), higher = longer survival): 90 % of control
T/C (endpoint: median survival time, dose: 1.25 mg/kg/injection, schedule: Q01DX009 (ip), vehicle: Klucel (hydroxypropylcellulose) (HPC), higher = longer survival): 89 % of control
T/C (endpoint: median survival time, dose: 2.5 mg/kg/injection, schedule: Q01DX009 (ip), vehicle: Klucel (hydroxypropylcellulose) (HPC), higher = longer survival): 89 % of control

CC[C@@H](C(=O)[C@@H](C)[C@@H](O)[C@H](C)CCc1ccc(C)c(O)c1C(=O)O)[C@H]1O[C@](CC)([C@H]2CC[C@](O)(CC)[C@H](C)O2)C[C@@H]1C
T/C (endpoint: median survival time, dose: 0.78 mg/kg/injection, schedule: Q01DX009 (ip), vehicle: Klucel (hydroxypropylcellulose) (HPC), higher = longer survival): 113 % of control
T/C (endpoint: median survival time, dose: 1.56 mg/kg/injection, schedule: Q01DX009 (ip), vehicle: Klucel (hydroxypropylcellulose) (HPC), higher = longer survival): 111 % of control
T/C (endpoint: median survival time, dose: 3.12 mg/kg/injection, schedule: Q01DX009 (ip), vehicle: Klucel (hydroxypropylcellulose) (HPC), higher = longer survival): 93 % of control
T/C (endpoint: median survival time, dose: 6.25 mg/kg/injection, schedule: Q01DX009 (ip), vehicle: Klucel (hydroxypropylcellulose) (HPC), higher = longer survival): 96 % of control
T/C (endpoint: median survival time, dose: 25.0 mg/kg/injection, schedule: Q01DX009 (ip), vehicle: Klucel (hydroxypropylcellulose) (HPC), higher = longer survival): 96 % of control

CC(C)=CCC/C(C)=C/CO
T/C (endpoint: mean tumor weight, dose: 3.9 mg/kg/injection, schedule: Q01DX011 (ip), vehicle: saline, higher = larger tumour): 74 % of control
T/C (endpoint: mean tumor weight, dose: 7.8 mg/kg/injection, schedule: Q01DX011 (ip), vehicle: saline, higher = larger tumour): 85 % of control
T/C (endpoint: mean tumor weight, dose: 15.6 mg/kg/injection, schedule: Q01DX011 (ip), vehicle: saline, higher = larger tumour): 71 % of control
T/C (endpoint: mean tumor weight, dose: 31.3 mg/kg/injection, schedule: Q01DX011 (ip), vehicle: saline, higher = larger tumour): 68 % of control and 73 % of control
T/C (endpoint: mean tumor weight, dose: 62.5 mg/kg/injection, schedule: Q01DX011 (ip), vehicle: saline, higher = larger tumour): 105 % of control

O=[N+]([O-])c1ccc2c(N=Nc3ccc4ccccc4c3O)c(O)cc(S(=O)(=O)O)c2c1
T/C (endpoint: median survival time, dose: 37.5 mg/kg/injection, schedule: Q01DX009 (ip), vehicle: saline, higher = longer survival): 101 % of control
T/C (endpoint: median survival time, dose: 75.0 mg/kg/injection, schedule: Q01DX009 (ip), vehicle: saline, higher = longer survival): 109 % of control
T/C (endpoint: median survival time, dose: 150.0 mg/kg/injection, schedule: Q01DX009 (ip), vehicle: saline, higher = longer survival): 94 % of control

CC(C)=CCC/C(C)=C/C=O
T/C (endpoint: mean tumor weight, dose: 50.0 mg/kg/injection, schedule: Q01DX010 (ip), vehicle: saline, higher = larger tumour): 84 % of control
T/C (endpoint: mean tumor weight, dose: 100.0 mg/kg/injection, schedule: Q01DX010 (ip), vehicle: saline, higher = larger tumour): 61 % of control

O=C1C2CCCCC2C(=O)N1c1nccs1 (centres undefined)
T/C (endpoint: mean tumor weight, dose: 50.0 mg/kg/injection, schedule: Q01DX011 (ip), vehicle: carboxymethylcellulose (CMC), higher = larger tumour): 58 % of control
T/C (endpoint: mean tumor weight, dose: 100.0 mg/kg/injection, schedule: Q01DX011 (ip), vehicle: carboxymethylcellulose (CMC), higher = larger tumour): 71 % of control
T/C (endpoint: mean tumor weight, dose: 200.0 mg/kg/injection, schedule: Q01DX011 (ip), vehicle: carboxymethylcellulose (CMC), higher = larger tumour): 84 % of control

Cc1ccccn1
T/C (endpoint: mean tumor weight, dose: 62.5 mg/kg/injection, schedule: Q01DX011 (ip), vehicle: carboxymethylcellulose (CMC), higher = larger tumour): 93 % of control
T/C (endpoint: mean tumor weight, dose: 125.0 mg/kg/injection, schedule: Q01DX011 (ip), vehicle: carboxymethylcellulose (CMC), higher = larger tumour): 112 % of control
T/C (endpoint: mean tumor weight, dose: 250.0 mg/kg/injection, schedule: Q01DX011 (ip), vehicle: carboxymethylcellulose (CMC), higher = larger tumour): 94 % of control

O=C(O)CSC1(SCC(=O)O)CCCCC1
T/C (endpoint: mean tumor weight, dose: 133.0 mg/kg/injection, schedule: Q01DX011 (ip), vehicle: other, higher = larger tumour): 75 % of control
T/C (endpoint: mean tumor weight, dose: 200.0 mg/kg/injection, schedule: Q01DX011 (ip), vehicle: other, higher = larger tumour): 77 % of control
T/C (endpoint: mean tumor weight, dose: 300.0 mg/kg/injection, schedule: Q01DX011 (ip), vehicle: other, higher = larger tumour): 104 % of control
T/C (endpoint: mean tumor weight, dose: 450.0 mg/kg/injection, schedule: Q01DX011 (ip), vehicle: other, higher = larger tumour): 86 % of control

C1CCNCC1
T/C (endpoint: mean tumor weight, dose: 6.25 mg/kg/injection, schedule: Q01DX011 (ip), vehicle: saline, higher = larger tumour): 87 % of control
T/C (endpoint: mean tumor weight, dose: 12.5 mg/kg/injection, schedule: Q01DX011 (ip), vehicle: saline, higher = larger tumour): 87 % of control
T/C (endpoint: mean tumor weight, dose: 25.0 mg/kg/injection, schedule: Q01DX011 (ip), vehicle: saline, higher = larger tumour): 94 % of control
T/C (endpoint: mean tumor weight, dose: 50.0 mg/kg/injection, schedule: Q01DX011 (ip), vehicle: saline, higher = larger tumour): 73 % of control and 95 % of control
T/C (endpoint: mean tumor weight, dose: 100.0 mg/kg/injection, schedule: Q01DX011 (ip), vehicle: saline, higher = larger tumour): 83 % of control
